Measured values: the NIST ThermoML archive (doi:10.1021/je1009619)

Experiment: xn = mol fraction of the nth substance listed
Conditions: Liquid, Vibrating tube method

CC1=CC[C@H]2C[C@@H]1C2(C)C [(S)-2-pinene] + C=C(C)[C@H]1CC=C(C)CC1
mass density [kg/m3]
Conditions | x2 = 0 | x2 = 0.0976 | x2 = 0.1991 | x2 = 0.2983 | x2 = 0.3955 | x2 = 0.5036 | x2 = 0.5967 | x2 = 0.7024 | x2 = 0.8084 | x2 = 0.906
283.15 K, 20000 kPa | 880 | 878.3 | 876.4 | 874.6 | 872.9 | 870.9 | 869.2 | 867.4 | 865.3 | 863.5
283.15 K, 25000 kPa | 883.2 | 881.4 | 879.3 | 877.6 | 875.8 | 873.8 | 872.1 | 870.3 | 868.3 | 866.6
283.15 K, 30000 kPa | 886.3 | 884.3 | 882.4 | 880.5 | 878.7 | 876.7 | 875.1 | 873.1 | 871.3 | 869.2
283.15 K, 35000 kPa | 889.4 | 887.5 | 885.4 | 883.4 | 881.7 | 879.7 | 878 | 876.1 | 873.9 | 871.9
283.15 K, 40000 kPa | 892.5 | 890.4 | 888.5 | 886.5 | 884.7 | 882.7 | 880.9 | 878.9 | 876.5 | 874.4
298.15 K, 20000 kPa | 868.8 | 866.9 | 865.4 | 863.5 | 861.7 | 860 | 858.4 | 856.9 | 855.1 | 853
298.15 K, 25000 kPa | 872.1 | 870.3 | 868.6 | 866.8 | 865 | 863.2 | 861.6 | 859.8 | 858 | 856.1
298.15 K, 30000 kPa | 875.3 | 873.5 | 871.7 | 869.8 | 868.1 | 866.3 | 864.7 | 862.8 | 861 | 859.1
298.15 K, 35000 kPa | 878.6 | 876.7 | 875 | 873.1 | 871.3 | 869.5 | 867.9 | 865.9 | 864.1 | 862.2
298.15 K, 40000 kPa | 881.9 | 880 | 878.1 | 876.3 | 874.5 | 872.6 | 871 | 869 | 867.1 | 865.2
313.15 K, 20000 kPa | 858 | 856.2 | 854.4 | 852.6 | 851 | 849.2 | 847.6 | 845.9 | 844.1 | 842.4
313.15 K, 25000 kPa | 861.3 | 859.5 | 857.7 | 855.9 | 854.3 | 852.5 | 851 | 849.2 | 847.4 | 845.7
313.15 K, 30000 kPa | 864.7 | 862.8 | 861.1 | 859.3 | 857.6 | 855.7 | 854.2 | 852.4 | 850.5 | 848.8
313.15 K, 35000 kPa | 867.9 | 866.2 | 864.5 | 862.6 | 860.9 | 858.9 | 857.4 | 855.6 | 853.8 | 852
313.15 K, 40000 kPa | 871.3 | 869.5 | 867.8 | 866 | 864.2 | 862.2 | 860.6 | 858.8 | 856.9 | 855.1
328.15 K, 20000 kPa | 846.7 | 845.1 | 843.4 | 841.8 | 840.2 | 838.4 | 837 | 835.3 | 833.5 | 832
328.15 K, 25000 kPa | 850.4 | 848.7 | 847 | 845.2 | 843.6 | 841.9 | 840.4 | 838.6 | 836.9 | 835.4
328.15 K, 30000 kPa | 854 | 852.3 | 850.6 | 848.8 | 847.2 | 845.4 | 843.9 | 842.1 | 840.4 | 838.7
328.15 K, 35000 kPa | 857.5 | 855.8 | 854 | 852.3 | 850.6 | 848.8 | 847.3 | 845.5 | 843.7 | 841.9
328.15 K, 40000 kPa | 861.1 | 859.4 | 857.5 | 855.8 | 854.1 | 852.1 | 850.6 | 848.8 | 847.1 | 845.3
343.15 K, 20000 kPa | 835.9 | 834.4 | 832.8 | 831.2 | 829.6 | 827.9 | 826.5 | 824.8 | 823.1 | 821.6
343.15 K, 25000 kPa | 839.7 | 838.1 | 836.5 | 834.9 | 833.4 | 831.7 | 830.2 | 828.4 | 826.8 | 825.2
343.15 K, 30000 kPa | 843.8 | 842.1 | 840.4 | 838.8 | 837.1 | 835.4 | 834 | 832.1 | 830.4 | 828.8
343.15 K, 35000 kPa | 847.7 | 846 | 844.2 | 842.5 | 840.9 | 839.1 | 837.6 | 835.9 | 834.1 | 832.2
343.15 K, 40000 kPa | 851.4 | 849.6 | 847.9 | 846.2 | 844.5 | 842.7 | 841.2 | 839.5 | 837.3 | 835.5
358.15 K, 20000 kPa | 825 | 823.5 | 822.1 | 820.7 | 819.3 | 817.9 | 816.5 | 815.1 | 813.3 | 811.5
358.15 K, 25000 kPa | 829.2 | 827.7 | 826 | 824.6 | 823.1 | 821.6 | 820.2 | 818.7 | 816.9 | 815.3
358.15 K, 30000 kPa | 833.3 | 831.6 | 830 | 828.4 | 826.9 | 825.3 | 823.9 | 822.2 | 820.6 | 818.7
358.15 K, 35000 kPa | 837.4 | 835.7 | 834 | 832.2 | 830.7 | 829 | 827.5 | 825.8 | 824 | 822.4
358.15 K, 40000 kPa | 841.5 | 839.7 | 838 | 836.2 | 834.6 | 832.8 | 831.2 | 829.4 | 827.6 | 825.9
